Several values for one entry are separate records, joined by “and”; a condition that tells them apart may be missing. Equal entries are not always repeated. Entries after “also recorded” stand apart in the source; their conditions may differ. Where two headings read alike, the source gives them in different places.
Experiments:
[1] = system: A/Brisbane/59/2007 (H1N1); experiment: microbe, parasite or virus in culture; assay type: cell-based, influenza A virus; details: for EC90: two independent assays
[2] = system: A/Tennessee/1-560/2009 (H1N1)pdm09; experiment: microbe, parasite or virus in culture; assay type: cell-based, influenza A virus; details: for EC90: two independent assays
A/Perth/16/2009 (H3N2) = experiment: microbe, parasite or virus in culture; assay type: cell-based, influenza A virus; details: for EC90: two independent assays
B/Texas/06/2011 = experiment: microbe, parasite or virus in culture; assay type: cell-based, influenza B virus; details: for EC90: two independent assays
[3] = system: A/Vietnam/1203/2004 (H5N1); experiment: microbe, parasite or virus in culture; assay type: cell-based, influenza A virus; details: for EC90: Influenza A virus, H5N1, 48 h
A/Anhui/1/2013 (H7N9) = experiment: microbe, parasite or virus in culture; assay type: cell-based, influenza A virus; details: for EC90: Influenza A virus, H7N9, 48 h
[4] = system: influenza A/Brisbane/59/2007 (H1N1) virus; assay type: cell-based
[5] = system: influenza A and B viruses; experiment: microbe, parasite or virus in culture; assay type: cell-based
[6] = system: influenza A/Brisbane/59/2007 (H1N1) virus; assay type: cell-based; remark: listed apart in the source
[7] = system: influenza A/Brisbane/59/2007 (H1N1) virus; experiment: Time-of-addition experiment in dNHBE cells; assay type: cell-based
[8] = system: viral M gene RNA (A/Brisbane/59/2007); assay type: cell-based, influenza A virus; details: 8, 12, 18 and 24 h
[9] = system: segment 7 viral, complementary, and messenger RNA (A/Brisbane/59/2007); assay type: cell-based, influenza A virus; details: 24 h incubation
[10] = system: HA protein (A/Brisbane/59/2007); assay type: cell-based, influenza A virus
MDCK cells = details: 100 µM enisamium iodide, 24 h, n = 3 wells
[11] = system: Undifferentiated NHBE cells; details: 2000 µM enisamium chloride, 24 h
[12] = system: Differentiated NHBE cells; details: for enisamium uptake: 1000 µM, 2000 µM (Figure 2 legend)
[13] = CC50 divided by EC90, dNHBE cells

CCC(CC)O[C@@H]1C=C(C(=O)O)C[C@H](N)[C@H]1NC(C)=O [oseltamivir carboxylate]
EC90 ([1]; Influenza A virus, H1N1, 48 h): < 1 µM | EC90 ([2]; Influenza A virus, H1N1, 48 h): < 1 µM | EC90 (A/Perth/16/2009 (H3N2); Influenza A virus, H3N2, 48 h): < 1 µM | EC90 (B/Texas/06/2011; Influenza B virus, 48 h): < 1 µM | EC90 [3]: < 1 µM | EC90 (A/Anhui/1/2013 (H7N9)): < 1 µM | inhibition of virus replication at 24 and 48 h postinfection [4]: inhibited virus replication

C[n+]1ccc(C(=O)NCc2ccccc2)cc1 [enisamium, N-methyl-4-benzylcarbamidopyridinium]
Selectivity index [1, 13]: 23 | EC90 ([1]; Influenza A virus, H1N1, 48 h): 412 µM | EC90 [1]: 466 µM | Selectivity index [2, 13]: 34 | EC90 ([2]; Influenza A virus, H1N1, 48 h): 233 µM | EC90 [2]: 351 µM | Selectivity index (A/Perth/16/2009 (H3N2); [13]): 30 | EC90 (A/Perth/16/2009 (H3N2); Influenza A virus, H3N2, 48 h): 287 µM | EC90 (A/Perth/16/2009 (H3N2)): 375 µM | Selectivity index (B/Texas/06/2011; [13]): 64 | EC90 (B/Texas/06/2011; Influenza B virus, 48 h): 105 µM | EC90 (B/Texas/06/2011): 209 µM | Selectivity index [3]: 25 | EC90 [3]: 400 µM | Selectivity index (A/Anhui/1/2013 (H7N9)): 24 | EC90 (A/Anhui/1/2013 (H7N9)): 410 µM | EC90 ([5]; Influenza A virus, read-out: 90% effective (EC90) concentration range): 157 to 439 µM | reduction of virus titers ([5]; at certain concentrations, dNHBE cells): 100 fold | Selectivity index values (CC50 divided by EC90) ([5]; range over all viruses tested, dNHBE cells): 23- to 64 and > 20 | Antiviral activity in MDCK cells (plaque number/size, virus titers) [6]: no antiviral activity was found; also recorded: did not reduce; also recorded: ineffective | antiviral effect at lower concentrations ([4]; 100 and 500 µM, 24 h pretreatment): did not appreciably show an antiviral effect | intracellular concentration required for achieving an antiviral activity ([4]; dNHBE cells): exceeds 1885 ng/10^6 cells | inhibition of virus replication (virus yield reduction) [7]: 2.3–2.6 log10TCID50/ml | reductions in virus titers [7]: ≥ 100 fold | virus yield reduction [7]: 1.3 log10TCID50/ml and 0.7 log10TCID50/ml | viral M gene RNA versus untreated cells [8]: lower | inhibition of viral RNA synthesis [9]: nearly a complete inhibition | amount of detectable HA protein [10]: markedly decreased | Concentration of enisamium, Intracellular (mean ± SD) (MDCK cells): 27.9 ± 1.4 ng/10^6 cells | Concentration of enisamium, Intracellular (mean ± SD) ([11]; n = 3 wells): 4110 ± 830 ng/10^6 cells | Permeability (mean ± SD) ([11]; ratio intracellular to initial input): 0.85 ± 0.21% | Intracellular concentration of enisamium (mean ± SD) ([12]; 10 µM enisamium, 24 h): 36.8 ng/10^6 cells and 36.8 ± 3.9 ng/10^6 cells | Permeability (mean ± SD) ([12]; 10 µM enisamium, 24 h): 1.40 ± 0.15% | Intracellular concentration of enisamium (mean ± SD) ([12]; 50 µM enisamium, 24 h): 213 ng/10^6 cells and 213 ± 34 ng/10^6 cells | Permeability (mean ± SD) ([12]; 50 µM enisamium, 24 h): 1.62 ± 0.26% | Intracellular concentration of enisamium (mean ± SD) ([12]; 100 µM enisamium, 24 h): 410 ng/10^6 cells and 410 ± 77 ng/10^6 cells | Permeability (mean ± SD) ([12]; 100 µM enisamium, 24 h): 1.56 ± 0.29% | Intracellular concentration of enisamium (mean ± SD) ([12]; 500 µM enisamium, 24 h): 1727 ng/10^6 cells and 1727 ± 108 ng/10^6 cells | Permeability (mean ± SD) ([12]; 500 µM enisamium, 24 h): 1.31 ± 0.08% | Intracellular concentration of enisamium (mean ± SD) ([12]; 1000 µM enisamium, 24 h): 3009 ng/10^6 cells and 3009 ± 132 ng/10^6 cells | Permeability (mean ± SD) ([12]; 1000 µM enisamium, 24 h): 1.15 ± 0.05% | Concentration of enisamium, Intracellular (mean ± SD) ([12]; 2000 µM enisamium chloride, 24 h, n = 3 wells): 10,700 ± 1900 ng/10^6 cells | Permeability, all concentrations tested ([12]; 10-1000 µM enisamium, 24 h): 1.1–1.6% | enisamium uptake ([12]; exposure 0.25 h): 482 ng/10^6 cells | enisamium uptake ([12]; exposure 24 h): 2732 ng/10^6 cells | Permeability (mean ± SD) ([12]; ratio intracellular to initial input, 2000 µM enisamium chloride, 24 h): 1.9% and 1.90 ± 0.20%
